{"source": "patent US20260107957A1", "about": "“USE OF AN EMULSIFIER DERIVED FROM RICINOLEIC ACID TO INCREASE THE ABSORPTION OF CALCIUM AND PHOSPHORUS IN THE DIGESTIVE TRACT OF FARM ANIMALS” (priority 2023, published 2026)", "test_system": "laying hens", "test": "Assessment of shell quality in laying hen farms", "format": "in vivo", "conditions": "egg production", "protocol": "In order to assess the effect of the use of the nutritional supplement on the calcium and phosphorus absorption in laying hens, several studies on laying hens from different farms were carried out. The studies comprised the analysis of animals before and after the feed with the formulation containing the nutritional supplement comprising ingredients shown in Table 3.\nMore specifically, an assessment of the shell quality in laying hens was conducted by collecting the eggs before and after feeding the animals with the formulation containing the nutritional supplement. Hens from farms in the states of Espírito Santo (350,000 hens), São Paulo (2,000,000 hens), Paraná (1,100,000 hens), and Minas Gerais ([…]) were fed with a pair of feed formulas, one without and another one with the nutritional supplement of the present invention.\nLaid eggs were collected after feeding the hens with regular feed and later with the feed containing the emulsifier of the present invention. Data obtained from the analysis of the eggs from the farms in Espírito Santo, São Paulo, Paraná, and Minas Gerais are included in Tables 6 to 9 below, the beneficial effects on the shells being emphasized thereof, among them the reduction in cracks in chicken eggs."}
{"smiles": "CCCCCC[C@@H](O)C/C=C\\CCCCCCCC(=O)[O-].[Na+]", "note": "[emulsifier derived from ricinoleic acid, Sodium Ricinolate]", "values": [{"measurement": "increase of the amount of saleable eggs", "result": "up to 5%"}, {"measurement": "eggs produced daily lost by shell problems", "setting": "usual loss up to 7%", "result": "below 2%"}]}
